Test results reported in patent US8962694B2, “Composition for pest control” (priority 2006, dated 2015).
“And” between values parts separate entries of the source, which are not always exact repeats. Equal entries are not always repeated.

Tests used:
cane toads [1] = test: Trial 1 two-step test: ethanol anaesthesia, then pesticidal agent applied to dorsal surface; assay type: in vivo, Bufo marinus
Protocol: Testing of the efficacy of various compositions for the purpose of cane toad extermination was conducted in two trials. The first trial comprised a “two-step” test in which subject toads were initially exposed to an anaesthetic agent and, once anaesthetised, exposed to a pesticidal agent (i.e. killing agent) in the presence of a suitable carrier. This two-step approach was undertaken to ensure the humane extermination of the animals.
Subject animals were therefore exposed to an approximate total dose of 3-4 ml of materials, comprising 2-3 gm of an anaesthetising agent (i.e. ethanol) and up to 1.0 ml of the particular pesticidal agent to be tested. A mist of ethanol was applied (“primary treatment”) to the dorsal surface of the toad from a hand-held spray bottle. When the toad was stupefied, as judged by the inability of the animal to right itself onto its ventral surface when turned onto its back (generally 10-15 minutes after treatment), the test pesticidal agent was administered (“secondary treatment”) onto the animal's dorsal surface by means of a micropipette. The test pesticidal agent included chloroxylenol (i.e. 4-chloro 3,5-dimethyl phenol) in different carriers including ethanol, isopropanol, propanol and dilute solutions thereof. Animals were monitored continuously for their response to the treatment.

cane toads [2] = test: Trial 2 single spray application of test pesticidal compositions; assay type: in vivo, Bufo marinus
Text: The tests conducted in the second trial involved a single spray application of various test pesticidal compositions on cane toads. A hand-operated spray bottle was used to deliver a single standard dose of 3.0-3.3 gm of the particular test pesticidal agent to the dorsal surface of each animal. Animals were subsequently continuously monitored for their response to the treatment.

cane toads [3] = test system: cane toads
[4] = primary 100% ethanol 2.1-2.9 ml, secondary 5% chloroxylenol in 40% isopropanol/60% water, 1.0 ml, medium toads (90.0-139.9 gm)
[5] = primary 100% ethanol 2.1-2.9 ml, secondary 5% chloroxylenol in 40% isopropanol/60% water, 1.0 ml, small toads (45.0-89.9 gm)
[6] = primary 100% ethanol 2.1-2.9 ml, secondary 30% chloroxylenol in ethanol, 0.2 ml, small toads (45.0-89.9 gm)
[7] = primary 100% ethanol 2.1-2.9 ml, secondary 30% chloroxylenol in ethanol, 0.5 ml, small toads (45.0-89.9 gm)
[8] = primary 100% ethanol 2.1 ml, secondary 15% chloroxylenol in 60% isopropanol/40% water, 1.0 ml, small toads (45.0-89.9 gm)
[9] = large toads (≧140 gm), carrier 40% ethanol with 60% isopropanol, chloroxylenol content 3.75%
[10] = large toads (≧140 gm), carrier 40% ethanol with 60% isopropanol, chloroxylenol content 5.00%
[11] = large toads (≧140 gm), carrier 60% ethanol with 40% isopropanol, chloroxylenol content 5.00%
[12] = large toads (≧140 gm), carrier 70% ethanol with 30% isopropanol, chloroxylenol content 2.00%
[13] = large toads (≧140 gm), carrier 70% ethanol with 30% isopropanol, chloroxylenol content 2.50%
[14] = large toads (≧140 gm), carrier 80% ethanol with 20% isopropanol, chloroxylenol content 2.50%
[15] = large toads (≧140 gm), carrier 80% ethanol with 20% isopropanol, chloroxylenol content 3.75%
[16] = large toads (≧140 gm), carrier 80% ethanol with 20% isopropanol, chloroxylenol content 5.00%
[17] = medium size toads (90.0-139.9 gm), carrier 40% ethanol with 60% isopropanol, chloroxylenol content 3.75%
[18] = medium size toads (90.0-139.9 gm), carrier 40% ethanol with 60% isopropanol, chloroxylenol content 5.00%
[19] = medium size toads (90.0-139.9 gm), carrier 60% ethanol with 40% isopropanol, chloroxylenol content 5.00%
[20] = medium size toads (90.0-139.9 gm), carrier 70% ethanol with 30% isopropanol, chloroxylenol content 2.00%
[21] = medium size toads (90.0-139.9 gm), carrier 70% ethanol with 30% isopropanol, chloroxylenol content 2.50%
[22] = medium size toads (90.0-139.9 gm), carrier 80% ethanol with 20% isopropanol, chloroxylenol content 2.50%
[23] = medium size toads (90.0-139.9 gm), carrier 80% ethanol with 20% isopropanol, chloroxylenol content 3.75%
[24] = medium size toads (90.0-139.9 gm), carrier 80% ethanol with 20% isopropanol, chloroxylenol content 5.00%
[25] = pooled chloroxylenol concentrations and ethanol/propanol carriers (FIGS. 1 and 2)
[26] = small toads (45.0-89.9 gm), carrier 60% ethanol with 40% isopropanol, chloroxylenol content 2.50%
[27] = small toads (45.0-89.9 gm), carrier 60% ethanol with 40% isopropanol, chloroxylenol content 3.75%
[28] = small toads (45.0-89.9 gm), carrier 60% ethanol with 40% isopropanol, chloroxylenol content 5.00%
[29] = small toads (45.0-89.9 gm), carrier 70% ethanol in water, chloroxylenol content 2.50%
[30] = small toads (45.0-89.9 gm), carrier 70% ethanol with 30% isopropanol, chloroxylenol content 2.50%
[31] = small toads (45.0-89.9 gm), carrier 70% ethanol with 30% isopropanol, chloroxylenol content 3.75%
[32] = small toads (45.0-89.9 gm), carrier 70% ethanol with 30% isopropanol, chloroxylenol content 5.00%
[33] = small toads (45.0-89.9 gm), carrier 70% ethanol with 30% methanol, chloroxylenol content 2.50%
[34] = small toads (45.0-89.9 gm), carrier 80% ethanol with 20% isopropanol, chloroxylenol content 2.50%
[35] = small toads (45.0-89.9 gm), carrier 80% ethanol with 20% isopropanol, chloroxylenol content 3.75%
[36] = small toads (45.0-89.9 gm), carrier 80% ethanol with 20% isopropanol, chloroxylenol content 5.00%
[37] = small toads (45.0-89.9 gm), carrier 98% ethanol with 2% citral, chloroxylenol content 2.50%
[38] = small toads (45.0-89.9 gm), carrier 100% ethanol, chloroxylenol content 0.50%, spray 3.0-3.3 gm
[39] = small toads (45.0-89.9 gm), carrier 100% ethanol, chloroxylenol content 2.50%
[40] = small toads (45.0-89.9 gm), carrier 100% ethanol, chloroxylenol content 5.00%

SMILES: Cc1cc(O)cc(C)c1Cl [chloroxylenol, 4-chloro 3,5-dimethyl phenol]
- ethanol-anaesthetised toads exterminated (cane toads [1]; chloroxylenol in carriers (ethanol alone or dilutions of propanol), all toads treated (12)): 12
- mean time to death (cane toads [1]; [4]): 28 min
- number died/number tested (cane toads [1]; [4]): 1/1
- mean time to death (cane toads [1]; [5]): 30 min
- number died/number tested (cane toads [1]; [5]): 5/5
- mean time to death (cane toads [1]; [6]): 71 min
- number died/number tested (cane toads [1]; [6]): 2/2
- mean time to death (cane toads [1]; [7]): 64 min
- number died/number tested (cane toads [1]; [7]): 2/2
- mean time to death (cane toads [1]; [8]): 24 min
- number died/number tested (cane toads [1]; [8]): 2/2
- onset of death (cane toads [1]; two-step tests of Example 1): 16 to 102 min
- predicted time to kill toads of up to 200 gm weight (cane toads [2]; 2.5% chloroxylenol, from fitted line of FIG. 2): less than 60 minutes
- large toads killed/treated (cane toads [2]; compositions with 2.5% or more chloroxylenol): 31/32
- medium-sized toads killed (cane toads [2]; compositions with 2.5% or more chloroxylenol, all toads treated (33)): 33
- mean time to death (cane toads [2]; [9]): 52 min
- number died/number tested (cane toads [2]; [9]): 5/5
- mean time to death (cane toads [2]; [10]): 47 min
- number died/number tested (cane toads [2]; [10]): 4/4
- mean time to death (cane toads [2]; [11]): 39 min
- number died/number tested (cane toads [2]; [11]): 7/7
- number died/number tested (cane toads [2]; large toads (≧140 gm), carrier 70% ethanol with 30% isopropanol, chloroxylenol content 1.25%): 0/7;
- mean time to death (cane toads [2]; [12]): 50 min
- number died/number tested (cane toads [2]; [12]): 7/7
- mean time to death (cane toads [2]; [13]): 60 min
- number died/number tested (cane toads [2]; [13]): 7/7
- mean time to death (cane toads [2]; [14]): 91 min
- number died/number tested (cane toads [2]; [14]): 1/1
- mean time to death (cane toads [2]; [15]): 34 min
- number died/number tested (cane toads [2]; [15]): 3/4
- mean time to death (cane toads [2]; [16]): 53 min
- number died/number tested (cane toads [2]; [16]): 4/4
- mean time to death (cane toads [2]; [17]): 48 min
- number died/number tested (cane toads [2]; [17]): 4/4
- mean time to death (cane toads [2]; [18]): 46 min
- number died/number tested (cane toads [2]; [18]): 4/4
- mean time to death (cane toads [2]; [19]): 28 min
- number died/number tested (cane toads [2]; [19]): 7/7
- mean time to death (cane toads [2]; [20]): 65 min
- number died/number tested (cane toads [2]; [20]): 5/5
- mean time to death (cane toads [2]; [21]): 39 min
- number died/number tested (cane toads [2]; [21]): 5/5
- mean time to death (cane toads [2]; [22]): 37 min
- number died/number tested (cane toads [2]; [22]): 5/5
- mean time to death (cane toads [2]; [23]): 31 min
- number died/number tested (cane toads [2]; [23]): 4/4
- mean time to death (cane toads [2]; [24]): 52 min
- number died/number tested (cane toads [2]; [24]): 4/4
- tests in which a lethal outcome was achieved (cane toads [2]; of 93 in total, three chloroxylenol concentrations in four propanol-ethanol carriers): 92
- large toads died within 40 minutes (number) (cane toads [2]; [25]): 12/32
- large toads died within 40 minutes (percent) (cane toads [2]; [25]): 37%
- large toads died within 60 minutes (number) (cane toads [2]; [25]): 23/32
- large toads died within 60 minutes (percent) (cane toads [2]; [25]): 72%
- medium toads died within 40 minutes (number) (cane toads [2]; [25]): 25/33
- medium toads died within 40 minutes (percent) (cane toads [2]; [25]): 75%
- medium toads died within 60 minutes (number) (cane toads [2]; [25]): 30/33
- medium toads died within 60 minutes (percent) (cane toads [2]; [25]): 91%
- small toads killed in <30 minutes (number) (cane toads [2]; [25]): 22/28
- small toads killed in <30 minutes (percent) (cane toads [2]; [25]): 78%
- time to death, all medium sized toads (cane toads [2]; [25]): ≤ 102 min
- time to death, large toads, all but one (cane toads [2]; [25]): ≤ 120 min
- time to death, all small toads (cane toads [2]; pooled: 2.5%, 3.75%, 5% chloroxylenol in four ethanol/propanol carriers (FIGS. 1 and 2)): ≤ 40 min
- mean time to death (cane toads [2]; [26]): 27 min
- number died/number tested (cane toads [2]; [26]): 3/3
- mean time to death (cane toads [2]; [27]): 19 min
- number died/number tested (cane toads [2]; [27]): 3/3
- mean time to death (cane toads [2]; [28]): 21 min
- number died/number tested (cane toads [2]; [28]): 5/5
- mean time to death (cane toads [2]; [29]): 46 min
- number died/number tested (cane toads [2]; [29]): 3/3
- mean time to death (cane toads [2]; [30]): 26 min
- number died/number tested (cane toads [2]; [30]): 3/3
- mean time to death (cane toads [2]; [31]): 26 min
- number died/number tested (cane toads [2]; [31]): 3/3
- mean time to death (cane toads [2]; [32]): 22 min
- number died/number tested (cane toads [2]; [32]): 3/3
- mean time to death (cane toads [2]; [33]): 38 min
- number died/number tested (cane toads [2]; [33]): 3/3
- mean time to death (cane toads [2]; [34]): 25 min
- number died/number tested (cane toads [2]; [34]): 2/2
- mean time to death (cane toads [2]; [35]): 22 min
- number died/number tested (cane toads [2]; [35]): 4/4
- mean time to death (cane toads [2]; [36]): 16 min
- number died/number tested (cane toads [2]; [36]): 2/2
- mean time to death (cane toads [2]; [37]): 25 min
- number died/number tested (cane toads [2]; [37]): all three toads tested were killed and 3/3
- mean time to death (cane toads [2]; [38]): 62 min
- number died/number tested (cane toads [2]; [38]): one third and 1/3
- mean time to death (cane toads [2]; [39]): 28 min
- number died/number tested (cane toads [2]; [39]): 3/3
- mean time to death (cane toads [2]; [40]): 22 min
- number died/number tested (cane toads [2]; [40]): 3/3
- mean times to death (cane toads [2]; small toads, ethanol as sole carrier or mixtures of ethanol and propanol, at least 2.5% chloroxylenol): less than 30 minutes

SMILES: CCO [ethanol]
- lag period before onset of anaesthesia (toad stupefied, unable to right itself) (cane toads [1]; mist of ethanol on dorsal surface, 2-3 gm): 10 to 15 min
- anaesthetic effect of topical application (cane toads [3]; toads of all sizes): rapid- and long-acting anaesthetic
- lethality of ethanol alone (cane toads [3]; very small toads = less than about 45 gm): death only in some (but not all) very small toads
